From patent US20190269771A1, “PEPTIDE MIMOTOPE THAT INDUCES AN IMMUNE RESPONSE AGAINST MYCOBACTERIUM TUBERCULOSIS LIPOARABINOMANNAN (LAM)” (priority 2017, published 2019) come the findings set out here.

For assay [1], the system named is rabbit polyclonal anti-LAM antibody. The assay is described as follows: Peptide ELISA binding assay with rabbit polyclonal anti-LAM antibody. Conditions: for OD values, binding of rabbit polyclonal anti-LAM antibody by ELISA: coating 10 μg/ml. As to the method:
The ELISA plate wells were coated with by adding each peptide (2 μg in 0.1M NaHCO3, pH 8.6) and incubating overnight at 4° C. After overnight incubation, plates were blocked with BSA (5 mg/ml) for 1 hour at 4° C. For controls, wells were coated with same amount of LAM or BSA. After washing with TBST, diluted 143 anti-LAM antibodies were added to the ELISA plate and incubated at room temperature for 1 hour. Plates were washed with TBST and HRP-conjugated secondary antibodies were added and incubated for 1 hour. After washing 3 times with TBST, 50 μl of the 1-Step™ Ultra TMB-ELISA (Thermo Scientific Co, Ltd) substrates was added in the dark. After color development, 50 μl of 2M sulfuric acid was added to stop the reaction and absorbance was measured at 450 nm.

The test system of assay [2] is two monoclonal antibodies against M. tuberculosis lipoarabinomannan (LAM). Put plainly: Binding of recombinant M13 phages displaying the peptides to the anti-LAM mAbs. The conditions noted are these: peptide displayed on the g3p minor coat protein of recombinant M13 phage.
Assay [3] concerns Mouse anti-LAM antibodies. The assay is described as follows: ELISA with serum from LAM vaccinated mice against various antigens. It is filed as binding. Conditions: Swiss-Webster mice vaccinated with LAM combined with alum; FIG. 2D. As to the method: To perform ELISAS, 96-well ELISA plates (Greiner Bio-One Catalogue #655-001) were coated with 10 μg of corresponding coating antigens: HS peptide, HSSR peptide, Baculovirus, SG peptide, SGSR peptide, or LAM resuspended in coating buffer (0.1M NaHCO3, pH 8.6). After overnight coating at 4° C., blocking (5% skim milk in PBS) was performed for 1 hour at room temperature. After washing 3 times with washing buffer (0.01% Tween-20 in PBS), mouse serum was added to the appropriate wells and binding proceeded at room temperature for 1 hour. […] After incubating for 1 hour at room temperature, the plate was washed 3 times with TBST and 50 μl 179 of the 1-Step™ Ultra TMB180 ELISA substrate (Thermo Scientific) was added. 50 ul of 2M sulfuric acid was then added to stop the reaction and absorbance was measured at 450 nm.

As to HSFKWLDSPRLR [HS peptide], the “OD values, binding of rabbit polyclonal anti-LAM antibody by ELISA” value in assay [1] (HS peptide experiment, FIG. 2B) turned out to be 0.45. Moreover, the “binding affinity with both mAbs” value in assay [2] is reported as “strong binding affinity”.
On to “KLH alone: keyhole limpet hemocyanin carrier protein [reference compound]”, for which the “binding by serum from LAM vaccinated mice” value in assay [3] was “not”.
For “CISLTEWSMWYRH [Peptide P8, previously published LAM mimotope peptide, reference compound]”, in assay [1] (peptides conjugated to KLH vs scramble control, only at the 1:1000 dilution, FIG. 1B-E), the “detection of KLH-conjugated peptide by rabbit anti-LAM polyclonal antibody above control” value is on record as “could be specifically detected”.
For the substance SGVYKVAYDWQH [SG peptide], in assay [1] (SG peptide experiment, FIG. 2C), the “OD values, binding of rabbit polyclonal anti-LAM antibody by ELISA” value worked out at 0.32. Also, in assay [2], the “binding affinity with both mAbs” value is “strong binding affinity”.
